Assay results reported in patent US11312687B2, “7H-azulene [1,2,3-i,j] isoquinolin-7-one compound, single crystal and use thereof” (Hunan University of Chinese Medicine, priority 2017, dated 2022).
Like-named read-outs stand apart in the source and are kept apart here.

System: PC12 cells damaged by Aβ25-35
Experiment: Protective effect on PC12 cells damaged by Aβ25-35 (MTT cell viability)
Format: cell-based, rat
Excerpt: Protective effect of 6-hydroxy-5,8-dimethoxy-7H-azulene [1,2,3-i,j] isoquinolin-7-one on PC12 cells damaged by Aβ25-35: cell seeding in the 96-well plate was the same as above, and the experiment was divided into 5 groups, 4 holes in each group.

Work on `COc1cc2ccnc3c2c(c1O)-c1c-3cccc(OC)c1=O` [6-hydroxy-5,8-dimethoxy-7H-azulene [1,2,3-i,j] isoquinolin-7-one] yielded a viability at 0.5 µg/mL (Rattus norvegicus, PC-12, 0.5 ug·mL^-1 sample, 30 μmol/L Aβ25-35, 24 h, MTT, x ± s, n = 4) of 85.8 ± 1.6%, a viability at 1 µg/mL (Rattus norvegicus, PC-12, 1.0 ug·mL^-1 sample, 30 μmol/L Aβ25-35, 24 h, MTT, x ± s, n = 4, read-out: cell viability (%)) of 103 ± 1.8% and a viability at 5 µg/mL (Rattus norvegicus, PC-12, 5.0 ug·mL^-1 sample, 30 μmol/L Aβ25-35, 24 h, MTT, x ± s, n = 4) of 77.4 ± 3.8%. For the same compound, the viability at 1 µg/mL (Rattus norvegicus, PC-12, concentration of 1.0 μg·mL^-1, 30 μmol/L Aβ25-35, read-out: viability of PC12 damaged cells) was > 95% and the “cell viability compared to model group” value (three different concentrations (0.5, 1.0, 5.0 μg·mL^-1), P<0.01 vs model group) was “significantly increased cell viability”.
